Results published in US10597388B2, “Pyridazinone herbicides” (FMC CORPORATION, priority 2014, dated 2020).

Assays:
Type in all cases: in vivo
[1] = system: velvetleaf (Abutilon theophrasti); assay: Test C greenhouse herbicide test, pre- and postemergence
In short: (§1)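 Percent-control ratings (0 none, 100 complete) came from visual comparison with controls held alongside in the greenhouse for 13–15 d. Treatments covered soil application at sowing and foliar application to young plants 2–18 cm tall.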

[2] = system: foxtail, giant (giant foxtail, Setaria faberii); assay: as above
In short: as §1

[3] = system: lambsquarters (Chenopodium album); assay: as above
In short: as §1

[4] = system: waterhemp (common waterhemp, Amaranthus rudis); assay: as above
In short: as §1

[5] = system: morningglory (Ipomoea coccinea); assay: as above
In short: as §1

[6] = system: ragweed (common ragweed, Ambrosia elatior); assay: as above
In short: as §1

[7] = system: ryegrass, Italian (Italian ryegrass, Lolium multiflorum); assay: as above
In short: as §1

[8] = system: pigweed (Amaranthus retroflexus); assay: as above
In short: as §1

soybean (Glycine max) = assay: as above
In short: as §1

[9] = system: oilseed rape (Brassica napus); assay: as above
In short: as §1

[10] = system: crabgrass, large (large crabgrass, Digitaria sanguinalis); assay: as above
In short: as §1

corn (Zea mays) = assay: as above
In short: as §1

[11] = system: blackgrass (Alopecurus myosuroides); assay: as above
In short: as §1

[12] = system: johnsongrass (Sorghum halepense); assay: as above
In short: as §1

kochia (Kochia scoparia) = assay: Test C greenhouse herbicide test, postemergence
In short: (§2)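 Ratings are visual scores from 0 (no effect) to 100 (complete control), made against controls 13–15 d after treatment. Postemergence sprays were applied in the greenhouse to plants 2–18 cm tall (1- to 4-leaf stage) in peat-moss/vermiculite potting medium.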

[13] = system: oat, wild (wild oat, Avena fatua); assay: Test C greenhouse herbicide test, postemergence
In short: as §2

[14] = Postemergence, 31 g ai/ha, scale 0 to 100 (0 no effect, 100 complete control)
[15] = Postemergence, 62 g ai/ha, 0 to 100 scale (0 no effect, 100 complete control)
[16] = Postemergence, 250 g ai/ha, scale 0 to 100, 0 no effect, 100 complete control, 13 to 15 d
[17] = Preemergence, 31 g ai/ha, scale 0 to 100, 0 is no effect, 100 is complete control
[18] = Preemergence, 62 g ai/ha, scale 0 to 100, 0 is no effect, 100 is complete control
[19] = Preemergence, 125 g ai/ha, scale 0 to 100, 0 is no effect, 100 is complete control
[20] = Preemergence, 250 g ai/ha, scale 0 to 100 (0 no effect, 100 complete control)
[21] = postemergence, 125 g ai/ha, scale 0 to 100, 0 no effect, 100 complete control

CCC(=O)Oc1c(C)nn(C)c(=O)c1-c1ccc(Br)c2ccccc12 [Compound 133]
95: Plant response rating, Lambsquarters [3, 14] | Plant response rating, Lambsquarters [3, 19] | Lambsquarters plant response rating [3, 20] | Plant response rating, Waterhemp [4, 14] | Plant response rating, Waterhemp [4, 19] | Plant response rating, Morningglory [5, 16] | Morningglory plant response rating [5, 20] | Plant response rating, Ragweed [6, 19] | Plant response rating, Ryegrass, Italian [7, 18] | Plant response rating, Pigweed [8, 16] | Plant response rating, Oilseed Rape [9, 14] | Plant response rating, Oat, Wild [13, 16] | Oat, Wild plant response rating [13, 21]
35: Ryegrass, Italian plant response rating [7, 21] | Plant response rating, Crabgrass, Large [10, 19] | Blackgrass plant response rating [11, 15] | Plant response rating, Johnsongrass [12, 18]
65: Plant response rating, Foxtail, Giant [2, 18] | Plant response rating, Soybean (soybean (Glycine max); [19]) | Crabgrass, Large plant response rating [10, 20]
55: Plant response rating, Velvetleaf [1, 17] | Plant response rating, Foxtail, Giant [2, 16] | Plant response rating, Soybean (soybean (Glycine max); [14]) | Plant response rating, Soybean (soybean (Glycine max); [18])
70: Plant response rating, Ragweed [6, 17] | Blackgrass plant response rating [11, 21]
80: Plant response rating, Waterhemp [4, 17] | Plant response rating, Pigweed [8, 14] | Soybean plant response rating (soybean (Glycine max); [20])
30: Plant response rating, Foxtail, Giant [2, 17] | Plant response rating, Crabgrass, Large [10, 18] | Plant response rating, Blackgrass [11, 16] | Plant response rating, Blackgrass [11, 17] | Plant response rating, Johnsongrass [12, 19]
90: Velvetleaf plant response rating [1, 15] | Plant response rating, Velvetleaf [1, 18] | Plant response rating, Velvetleaf [1, 19] | Foxtail, Giant plant response rating [2, 20] | Plant response rating, Lambsquarters [3, 17] | Plant response rating, Lambsquarters [3, 18] | Plant response rating, Morningglory [5, 19] | Plant response rating, Ryegrass, Italian [7, 17] | Plant response rating, Oilseed Rape [9, 19] | Oilseed Rape plant response rating [9, 20] | Plant response rating, Oat, Wild [13, 14] | Oat, Wild plant response rating [13, 15]
85: Plant response rating, Velvetleaf [1, 14] | Plant response rating, Morningglory [5, 18] | Plant response rating, Oilseed Rape [9, 18]
45: Plant response rating, Morningglory [5, 17] | Plant response rating, Blackgrass [11, 14]
20: Plant response rating, Crabgrass, Large [10, 16] | Johnsongrass plant response rating [12, 21]
75: Plant response rating, Foxtail, Giant [2, 19] | Plant response rating, Ragweed [6, 18] | Soybean plant response rating (soybean (Glycine max); [21])
60: Plant response rating, Blackgrass [11, 18]
5: Plant response rating, Ragweed [6, 16] | Ragweed plant response rating [6, 21] | Plant response rating, Ryegrass, Italian [7, 14] | Plant response rating, Ryegrass, Italian [7, 16] | Plant response rating, Soybean (soybean (Glycine max); [17]) | Plant response rating, Oilseed Rape [9, 17] | Crabgrass, Large plant response rating [10, 15] | Crabgrass, Large plant response rating [10, 21] | Plant response rating, Corn (corn (Zea mays); [14]) | Corn plant response rating (corn (Zea mays); [15]) | Plant response rating, Corn (corn (Zea mays); [16]) | Plant response rating, Corn (corn (Zea mays); [17]) | Plant response rating, Corn (corn (Zea mays); [18]) | Corn plant response rating (corn (Zea mays); [21]) | Plant response rating, Johnsongrass [12, 14] | Plant response rating, Johnsongrass [12, 17]
100: Plant response rating, Velvetleaf [1, 16] | Velvetleaf plant response rating [1, 20] | Velvetleaf plant response rating [1, 21] | Plant response rating, Lambsquarters [3, 16] | Lambsquarters plant response rating [3, 21] | Waterhemp plant response rating [4, 15] | Plant response rating, Waterhemp [4, 16] | Plant response rating, Waterhemp [4, 18] | Waterhemp plant response rating [4, 20] | Waterhemp plant response rating [4, 21] | Plant response rating, Morningglory [5, 14] | Morningglory plant response rating [5, 15] | Morningglory plant response rating [5, 21] | Plant response rating, Ryegrass, Italian [7, 19] | Ryegrass, Italian plant response rating [7, 20] | Plant response rating, Pigweed [8, 17] | Plant response rating, Pigweed [8, 18] | Plant response rating, Pigweed [8, 19] | Pigweed plant response rating [8, 20] | Pigweed plant response rating [8, 21] | Kochia plant response rating (kochia (Kochia scoparia); [15]) | Plant response rating, Kochia (kochia (Kochia scoparia); [16]) | Kochia plant response rating (kochia (Kochia scoparia); [21])
0: Plant response rating, Ragweed [6, 14] | Ragweed plant response rating [6, 15] | Plant response rating, Crabgrass, Large [10, 14] | Plant response rating, Crabgrass, Large [10, 17]
25: Plant response rating, Foxtail, Giant [2, 14] | Foxtail, Giant plant response rating [2, 15]
98: Lambsquarters plant response rating [3, 15] | Ragweed plant response rating [6, 20] | Pigweed plant response rating [8, 15] | Oilseed Rape plant response rating [9, 15] | Plant response rating, Oilseed Rape [9, 16] | Oilseed Rape plant response rating [9, 21] | Plant response rating, Kochia (kochia (Kochia scoparia); [14])
40: Foxtail, Giant plant response rating [2, 21] | Soybean plant response rating (soybean (Glycine max); [15]) | Plant response rating, Soybean (soybean (Glycine max); [16]) | Johnsongrass plant response rating [12, 20]
10: Ryegrass, Italian plant response rating [7, 15] | Plant response rating, Corn (corn (Zea mays); [19]) | Corn plant response rating (corn (Zea mays); [20]) | Johnsongrass plant response rating [12, 15] | Plant response rating, Johnsongrass [12, 16]
50: Plant response rating, Blackgrass [11, 19] | Blackgrass plant response rating [11, 20]
